Measurements published in patent US20230167088A1, “1-PYRAZINYLPYRAZOLYL-3-OXYALKYL ACIDS AND THEIR DERIVATIVES, AND THEIR USE FOR CONTROL OF UNDESIRED PLANT GROWTH” (BAYER AKTIENGESELLSCHAFT, priority 2020, published 2023).

Columns and labels:
VIOTR [1] = assay: Herbicidal post-emergence action 1a (greenhouse pots, visual rating); type: in vivo, Viola tricolor; conditions: visual rating about 3 weeks after treatment
Procedure, shortened: (§1)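 Visual scoring versus untreated plants (100% = plants dead, 0% = as control) followed roughly 3 weeks in the greenhouse after treatment. Plants grown in sandy loam pots had been sprayed on green parts at the one-leaf stage, 2–3 weeks post-sowing, with aqueous WP/EC preparations containing 0.5% additive, 600 l/ha, at 320 and/or 80 g/ha.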

harmful plants = assay: Herbicidal pre-emergence action 2a, summary across species; type: in vivo; conditions: Tables B1 to B15 (320 g/ha and/or 80 g/ha)
Excerpt: a) Seeds of monocotyledonous and dicotyledonous weed plants and crop plants are placed in plastic or organic plant pots and covered with soil. The compounds of the invention, formulated in the form of wettable powders (WP) or as emulsion concentrates (EC), are then applied onto the surface of the covering soil as aqueous suspension or emulsion with addition of 0.5% additive at a water application rate of 600 1/ha (converted). After the treatment, the pots are placed in a greenhouse and kept under good growth conditions for the trial plants. After about 3 weeks, the effect of the preparations is scored visually in comparison with untreated controls as percentages. For example, 100% activity=the plants have died, 0% activity=like control plants.
Tables B1 to B15 below show the effects of selected compounds of the general formula (I) according to Tables 1 and 2 on various harmful plants and an application rate corresponding to 320 g/ha and/or 80 g/ha, which were obtained by the experimental procedure mentioned above.
For example, compound nos. I-07, I-08, I-11, I-12, I-13, I-16, I-17, I-20, I-36, I-37, I-39, I-45, I-46, I-48, I-52 and I-53 in the pre-emergence method have very good action (80% to 100% herbicidal activity) against harmful plants such as Alopecurus myosuroides, Amaranthus retroflexus, Digitaria sanguinalis, Lolium rigidum, Polygonum convolvulus, Setaria viridis, Veronica persica and Viola tricolor at an application rate of 0.32 kg of active substance per hectare.

PHBPU = assay: Herbicidal post-emergence action 1a (greenhouse pots, visual rating); type: in vivo, Pharbitis purpurea; conditions: visual rating about 3 weeks after treatment
Procedure, shortened: as §1

LOLRI = assay: as above; type: in vivo, Lolium rigidum; conditions: rated visually about 3 weeks after treatment, 100% = plants have died, 0% = like control plants
Procedure, shortened: as §1

VIOTR [2] = assay: Herbicidal pre-emergence action 2a (greenhouse pots, visual scoring); type: in vivo, Viola tricolor; conditions: dosage 320 g/ha, visual scoring after about 3 weeks vs untreated controls
Procedure, shortened: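 Pre-emergence greenhouse pot test: WP or EC formulations sprayed onto covering soil over sown seeds at 600 l/ha water with 0.5% additive, at rates corresponding to 320 g/ha and/or 80 g/ha. Visual % activity versus untreated controls after about 3 weeks (100% = plants dead).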

AVEFA = assay: Herbicidal post-emergence action 1a (greenhouse pots, visual rating); type: in vivo, Avena fatua; conditions: rated visually about 3 weeks after treatment, 100% = plants have died, 0% = like control plants
Procedure, shortened: as §1

POAAN = assay: Herbicidal post-emergence action 1b (twin sowing, 1280 g/ha); type: in vivo, Poa annua; conditions: dosage 1280 g/ha, visual rating about 3 weeks after treatment
Procedure, shortened: (§2)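 Compounds formulated as WP or EC were applied with 0.5% additive in 600 L/ha water onto one-leaf-stage weeds, each pot sown with one monocot and one dicot species in sandy loam. After roughly 3 weeks in the greenhouse, visual percent activity was scored against untreated plants.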

MATIN = assay: as above; type: in vivo, Matricaria inodora; conditions: dosage 1280 g/ha, visual rating about 3 weeks after treatment
Procedure, shortened: as §2

ECHCG [3] = assay: Herbicidal pre-emergence action 2b (doubly sown, 1280 g/ha); type: in vivo, Echinochloa crus-galli; conditions: doubly sown pots, dosage 1280 g/ha, visual scoring after about 3 weeks
Procedure, shortened: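 Visual % scores against untreated plants (0% = like control, 100% = dead) were taken roughly 3 weeks after treatment in the greenhouse. Compounds, as WP or EC with 0.5% additive, were applied in 600 l/ha water onto covering soil over seeds of paired mono-/dicot weeds in sandy loam.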

STEME = assay: Herbicidal post-emergence action 1b (twin sowing, 1280 g/ha); type: in vivo, Stellaria media; conditions: dosage 1280 g/ha, visual rating about 3 weeks after treatment
Procedure, shortened: as §2

ECHCG [4] = assay: as above; type: in vivo, Echinochloa crus-galli; conditions: dosage 1280 g/ha, visual rating about 3 weeks after treatment
Procedure, shortened: as §2

SMILES	Post-emergence action against VIOTR in % (VIOTR [1]; dosage 80 g/ha) [%]	Post-emergence action against VIOTR in % (VIOTR [1]; dosage 320 g/ha) [%]	herbicidal efficacy against harmful plants in the case of pre-emergence treatment (in words) (harmful plants)	Post-emergence action against PHBPU in % (PHBPU; dosage 80 g/ha) [%]	Post-emergence action against PHBPU in % (PHBPU; dosage 320 g/ha) [%]	Post-emergence action against LOLRI in % (LOLRI; Dosage 80 g/ha) [%]	Post-emergence action against LOLRI in % (LOLRI; Dosage 320 g/ha) [%]	Pre-emergence action against VIOTR in % (VIOTR [2]) [%]	Post-emergence action against AVEFA in % (AVEFA; Dosage 80 g/ha) [%]	Post-emergence action against AVEFA in % (AVEFA; Dosage 320 g/ha) [%]	Post-emergence action at 1280 g/ha against POAAN in % (POAAN) [%]	Post-emergence action at 1280 g/ha against MATIN in % (MATIN) [%]	Pre-emergence action at 1280 g/ha against ECHCG in % (ECHCG [3]) [%]	Post-emergence action at 1280 g/ha against STEME in % (STEME) [%]	Post-emergence action at 1280 g/ha against ECHCG in % (ECHCG [4]) [%]
COC(=O)COc1nn(-c2cnccn2)c(-c2cncc(F)c2)c1Br [Example I-07]	80	90	good herbicidal efficacy	90	90	80	90	100	100	100					
COC(=O)COc1nn(-c2cnccn2)c(-c2ccc(F)c(F)c2)c1Br [Example I-15]	90	90	good herbicidal efficacy	90	90	90	90	100	90	90					
COC(=O)C(C)Oc1nn(-c2cnccn2)c(-c2ccc(F)c(F)c2)c1C#N (racemic) [Example I-22]	80	90	good herbicidal efficacy	80	90	80	100	90	100	100	100	90	100	100	
CCOC(=O)COc1nn(-c2cnccn2)c(-c2ccc(F)nc2)c1Br [Example I-52, ethyl {[4-bromo-5-(6-fluoropyridin-3-yl)-1-(pyrazin-2-yl)-1H-pyrazol-3-yl]oxy}acetate]		80	good herbicidal efficacy	80				90				90			
COC(=O)COc1nn(-c2cnccn2)c(-c2ccc(F)nc2)c1Br [Example I-11]	90	100	good herbicidal efficacy	80	80			100			100		90	90	90
COC(=O)C(C)Oc1nn(-c2cnccn2)c(-c2ccnc(F)c2)c1Br (racemic) [Example I-10]	90	100					90	80	80	90	100			90	
COC(=O)C(C)Oc1nn(-c2cnccn2)c(-c2ccnc(F)c2)c1Cl (racemic) [Example I-05]	90	90	good herbicidal efficacy				90	100	90	100	100		100	90	
COC(=O)C(C)Oc1nn(-c2cnccn2)c(-c2cncc(F)c2)c1Br (racemic) [Example I-08]	90	90	good herbicidal efficacy	80	90		90	100	100	100					
COC(=O)[C@@H](C)Oc1nn(-c2cnccn2)c(-c2cncc(F)c2)c1C#N [Example I-40]		80			90		80	90		80	100	100	100	100	
CCOC(=O)COc1nn(-c2cnccn2)c(-c2ccccc2)c1Br [Example I-01]	90	90	good herbicidal efficacy	80	80		90					90	100	100	
